Measurements from US10711246B2, “Methods and compositions for generating epicardium cells” (UNIVERSITY HEALTH NETWORK, priority 2013, dated 2020).

What was measured:
Type in all cases: cell-based, human
[1] = tested on: hESC-derived WT1+ epicardial cells; experiment: EMT induction in passaged day 15 WT1+ epicardial cells; qRT-PCR, flow cytometry, immunostaining; details: for WT1 expression over time after EMT initiation: qRT-PCR, eight-day culture
Experimental: FIG. 11. WT1^+ epicardial cells undergo EMT in response to TGFβ1 and bFGF treatment. (a) Scheme of the protocol used for EMT induction. Day 15 WT1+ cultures are passaged, allowed to settle for 1 day and then treated with TGFβ1 (5 ng/ml) for 4 days followed by no treatment (TGFβ), sequential treatment with […] (5 ng/ml) for 4 days followed by bFGF (10 ng/ml) for 4 days (TGFβ+bFGF), or bFGF (10 ng/ml) treatment for 8 days (bFGF). No treatment of the cultures serves as a control. (b) Flow cytometric analyses of cultures 8 days following the initiation of EMT for the cell surface mesenchymal marker CD90. Gray filled histogram indicates control culture fluorescence intensity. (c) qRT-PCR-based expression of the epicardial gene WT1 and the EMT-induced genes SNAI1 and SNAI2 on days 2, 4, 6 and 8 after EMT initiation. Values are expressed as fold change to experiment-matched pre-passaged day 15 WT1+ cultures. Error bars represent standard deviation from the mean of the values from three independent experiments (N=3); *P≤0.05, **P≤0.01 compared to no treatment control.
FIG. 12. WT1 and ZO1 expression is lost in response to EMT. Phase contrast and fluorescent immunostaining showing cell morphology and the expression of ZO1 and WT1 proteins in epicardial cultures 8 days after EMT initiation with the indicated factors.
FIG. 13. EPDCs display characteristic expression of fibroblasts and vascular smooth muscle cell markers by fluorescent immunostaining. Fluorescent immunostaining showing α-Smooth muscle actin (SMA) and Vimentin (VIM) protein in cultures 8 days after EMT initiation with the indicated factors.
FIG. 14. EPDCs display characteristic expression of fibroblasts and vascular smooth muscle cell markers by qRT-PCR. qRT-PCR-based expression analyses of the smooth muscle genes […], MYH11, TAGLN and SMTN and the epicardial/cardiac fibroblast gene TCF21 in the indicated cultures 8 days after EMT initiation. Values are expressed as fold change to experiment-matched pre-passaged day 15 WT1^+ epicardium cultures. Error bars represent standard deviation from the mean of the values from three independent experiments (N=3); *P≤0.05, **P≤0.01 compared to no treatment control cultures.
To determine if the hESC-derived WT1^+ epicardial-like cells can undergo EMT, an assay was designed in which D15 epicardial cells are passaged, allowed one day to recover, and then treated for a total of eight days with one of four treatment regimens. The regimens consisted of: 1) TGFβ-1 for four days followed by four days with no additional factor (TGFβ), 2) TGFβ-1 for four days followed by four days with bFGF (TGFβ+bFGF), 3) bFGF for eight days (bFGF) or 4) no additional factors for eight days (FIG. 11a). Following culture under the different conditions, the cells were harvested and analyzed by qRT-PCR and flow cytometry.

[2] = tested on: hESC epicardial-derived smooth muscle-like cells; experiment: Calcium transients of EMT-induced cells after norepinephrine (NE) and phenylephrine (PE) stimulation
Experimental: (a) The total proportion of actively cycling cells in EMT-induced cultures was measured for the indicated treatments. Treatment with TGFβ+bFGF generated populations with the largest proportion of actively cycling cells in response to agonists. Bars represent standard error of the mean; N=3/group; *P<0.05, **P<0.01 compared by one-way ANOVA with Tukey post hoc test. (b) The frequency of calcium cycles in actively cycling cells in the conditions as indicated at baseline and after NE and PE addition. Stacked bars represent the contribution to frequency of calcium cycling during baseline recording (hatched lines), and after NE (white) or PE (black) treatment. (c) The amplitude of calcium transients after NE and PE addition in the EMT induced cultures. No Treatment NE N=6 cells, PE N=4 cells; TGFβ NE N=6 cells, PE N=12 cells; TGFβ+bFGF NE N=13 cells, PE N=25 cells. *P<0.05 compared by one-way ANOVA with Tukey post hoc test. (d) The duration of calcium transients after NE and PE addition in the EMT induced cultures. […]
To test the contractile function of the smooth muscle-like cells generated following the EMT induced with TGFβ and TGFβ+bFGF, calcium transients were measured following stimulation with norepinephrine (NE) and phenylephrine (PE) using previously described methods^32. […]

hPSC-derived Epi cells = experiment: Matrigel invasion assay eight days after EMT induction, confocal microscopy and 3D reconstruction; details: eight days following induction of EMT
Source text: (a) Representative fields of view in the XY plane (top view) and 3D reconstruction (side view) of the matrigel invasion assay on D8 after EMT induction.
(b) Maximum matrigel invasion depth on D8 following EMT initiation. Bars represent standard error of the mean of the values from three independent experiments (N=3); **P≤0.01 compared to non-treated controls as analyzed by Student's T-test.
It is well established that during heart development EPDCs, and in particular cardiac fibroblasts, invade the myocardial layer^33. To assess this potential of the hPSC-derived Epi cells, their ability to invade a 3D layer of Matrigel following induction of EMT with the different factors was measured. To enable us to easily track the migration of the cells, the Epi population was generated from GFP expressing hESCs^48. Matrigel invasion was monitored eight days following the induction of EMT by confocal microscopy and evaluated using 3D image reconstruction (FIG. 16a). […] Along with invasion, bFGF treatment also led to an increase in total cell number within the regions of interest (ROI). […] To further quantify the degree of invasion, the proportion of cells in each population that migrated to different depths was calculated. Virtually all of the cells in the non-induced, the TGFβ-induced and TGFβ+bFGF-induced populations were detected within the first 200 μm of the gel. In contrast, approximately half of the cells in the bFGF-induced population migrated beyond this depth, some as far as 600 μm.

WT1+ epicardial cells = experiment: ALDH1A2 expression (qRT-PCR) and Aldefluor staining (flow cytometry) after EMT induction; details: cultures in which EMT had been induced, versus non-treated passaged epicardial cells
Source text: FIG. 17. WT1^+ epicardial cells upregulate ALDH1A2 expression and display aldehyde dehydrogenase activity following passage. (a) qRT-PCR-based expression analyses of ALDH1A1, ALDH1A2 and ALDH1A3 in D15 WT^+ epicardial cultures and Day 15+8 post-passage non-treated epicardial cultures. Values are relative to the housekeeping gene TBP. Error bars represent standard deviation from the mean of the values from three independent experiments (N=3); *P≤0.05, **P≤0.01 compared to ALDH1A2 expression levels. (b) qRT-PCR-based expression analyses of ALDH1A2 on days 2, 4, 6 and 8 following the initiation of EMT. Values are expressed as fold change to experiment-matched pre-passaged day 15 WT1^+ epicardial cultures. Error bars represent standard deviation from the mean of the values from three independent experiments (N=3); *P≤0.05, **P≤0.01 compared to no treatment control cultures. (c) Flow cytometric analyses of Aldefluor on day 15 populations generated from cells treated from days 4 to 6 with DM (non-cardiac, non-epicardial), BMP4+XAV (cardiomyocytes) or BMP4+CHIR (WT1^+ epicardial cells). (d) Flow cytometry analyses of Aldefluor on WT1^+ epicardium-derived cultures 8 days following the initiation of EMT with the indicated treatments. […]

[3] = qRT-PCR 8 days after EMT initiation

Row | Substance | ZO1 (and WT1) expression by immunostaining ([1]; 8 days after EMT initiation) | vimentin (VIM) immunostaining ([1]; 8 days after EMT initiation, compared with bFGF alone) | α-smooth muscle actin (SMA) immunostaining ([1]; compared to bFGF or absence of factors) | expression of smooth muscle genes CNN1, MYH11, TAGLN, SMTN and fibroblast marker TCF21 [1, 3] | SNAI2 expression ([1]; qRT-PCR after EMT initiation) | WT1 expression over time after EMT initiation [1] | amplitude of calcium response ([2]; PE-treated, compared to control cultures) | calcium cycling rates ([2]; following PE stimulation, cells that exhibited calcium transients) | Matrigel invasion (migratory behaviour, depth) (hPSC-derived Epi cells) | total cell number within the regions of interest (hPSC-derived Epi cells) [cells per ROI] | ALDH1A2 expression and Aldefluor staining (WT1+ epicardial cells) | MYH11 expression [1, 3] | SNAI1 expression ([1]; qRT-PCR after EMT initiation) | proportion of cells that migrated beyond 200 μm (hPSC-derived Epi cells) | farthest depth of migration (hPSC-derived Epi cells; some cells) [μm]
1 | TGFβ-1 | internalized or lost | substantially brighter staining | higher levels | upregulated expression of CNN1, MYH11, TAGLN and SMTN but not TCF21 | increases in SNAI2 expression | steady decreases in WT1 expression | greatest | faster calcium cycling rates than those in the non-induced control cultures | little capacity to invade the Matrigel | 56.8±9.5 | dramatically lower levels | – | – | – | –
2 | bFGF | internalized or lost | – | – | expressed TCF21 in addition to CNN1, TAGLN and SMTN | increases in SNAI2 expression | did not decline below those of the control | – | – | most migratory and invaded the matrigel to the greatest depth | 379.7±40.5 | dramatically lower levels | did not express MYH11 | induced the expression of SNAI1 | approximately half | ≤ 600
